{"source": "patent US10028992B2", "about": "“Methods of treating muscular dystrophy” (BOARD OF REGENTS OF THE NEVADA SYSTEM OF HIGHER EDUCATION …, priority 2012, dated 2018)", "system": "α7 integrin promoter", "test": "muscle cell-based assay: α7βgal+/− myoblasts/myotubes, LacZ reporter, β-galactosidase cleavage of FDG", "parameters": "species or system mouse; Results in α7+/− β-galactosidase assay: scale not given here", "details": "for EC50 / AC50 / Emax: Mus musculus; for EC50: given as log AC50 (negative values), read-out: Fit LogAC50 (converted); for Fit Curve Class: key not given; for Result in α7+/− β-galactosidase assay / Results in α7+/− β-galactosidase assay: Myoblasts; for Results in a α7+/− β-galactosidase assay, Myotubes, 0.5 uM: compound at 0.5 uM; for Results in a α7+/− β-galactosidase assay, Myotubes, 1 uM: compound at 1 uM; for Results in a α7+/− β-galactosidase assay, Myotubes, 5 uM: compound at 5 uM; for Results in a α7+/− β-galactosidase assay, Myotubes, 10 uM: compound at 10 uM; for Results in a α7+/− β-galactosidase assay, Myotubes, 20 uM: compound at 20 uM; for Results in a α7+/− β-galactosidase assay, Myotubes, 40 uM: compound at 40 uM; for AC50: read-out: Fit Log AC50 (converted); for Emax: read-out: Max Response [%]", "method": "An α7 integrin null mouse was produced in which exon 1 of the gene encoding the α7 integrin was replaced by the LacZ reporter. In these mice, all the transcriptional regulatory elements of the α7 integrin promoter were retained, allowing β-galactosidase to report expression of 7 integrin. A primary myoblast cell line (designated α7βgal^+/−) isolated from 10 day old α7^+/− pups were analyzed for the ability of β-galactosidase to report α7 integrin expression. α7βgal^+/− myoblasts were differentiated and subjected to X-gal staining and western analysis (FIGS. 1A and 1B).\nThe activity of the α7 integrin promoter was measured by β-galactosidase cleavage of the non-fluorescent compound fluorescein di-β-D-galactopyranoside (FDG) to fluorescein. This assay was used to screen compound libraries to identify molecules that up-regulate α7 integrin expression in muscle.\nAlso evaluated was the effect of various isoforms of laminin and the ligand for α7β1 integrin on integrin expression. Positive hits were subjected to dose-response analysis, western analysis and a myostatin counterscreen (a negative regulator of muscle growth).", "key": {"[1]": {"details": "curve fit, activity at zero concentration"}, "[2]": {"details": "Table 12, log of AC50, given with negative sign, unit of AC50 not given"}, "[3]": {"details": "Table 12, fitted activity at zero concentration"}, "[4]": {"details": "Table 12 Compound data, concentration-response curve fit"}}, "data": [{"smiles": "Cc1ccc(-c2nc(C)sc2CC(=O)OCC(=O)Nc2c(F)cccc2F)cc1", "note": "[Compound 210]", "values": [{"measurement": "EC50", "result": 12.6, "unit": "µM"}, {"measurement": "Score", "setting": "Table 12 compound data", "result": 42}, {"measurement": "Fit Curve Class", "setting": "curve class number", "result": 2.1}, {"measurement": "Fit HillSlope", "setting": "curve fit", "result": 4.9549}, {"measurement": "Fit Zero Activity [%]", "setting": "[1]", "result": 11.9156, "unit": "%"}]}, {"smiles": "O=C(N/N=C/c1cn[nH]c1-c1ccc(F)cc1)c1ccncc1", "note": "[Compound 128]", "values": [{"measurement": "EC50", "result": 14.1, "unit": "µM"}, {"measurement": "Score", "setting": "Table 12 compound data", "result": 43}, {"measurement": "Fit Curve Class", "setting": "curve class number", "result": 2.1}, {"measurement": "Fit HillSlope", "setting": "curve fit", "result": 4.5045}, {"measurement": "Fit Zero Activity [%]", "setting": "[1]", "result": 14.6735, "unit": "%"}]}, {"smiles": "Cc1nnc(SCC(=O)c2ccc(Br)cc2)s1", "note": "[drawing 709]", "values": [{"measurement": "Result in α7+/− β-galactosidase assay", "setting": "0.5 uM", "result": 0.3789}, {"measurement": "Result in α7+/− β-galactosidase assay", "setting": "1 uM", "result": 0.2434}, {"measurement": "Result in α7+/− β-galactosidase assay", "setting": "5 uM", "result": 0.08324}, {"measurement": "Result in α7+/− β-galactosidase assay", "setting": "10 uM", "result": 0.1001}, {"measurement": "Result in α7+/− β-galactosidase assay", "setting": "20 uM", "result": 0.111}, {"measurement": "Result in α7+/− β-galactosidase assay", "setting": "40 uM", "result": "−0.07647"}]}, {"smiles": "Cc1ccc2c(c1)/C(=C/c1ccco1)C(=O)N2", "note": "[drawing 696]", "values": [{"measurement": "Results in α7+/− β-galactosidase assay", "setting": "0.5 uM", "result": 0.2035}, {"measurement": "Results in α7+/− β-galactosidase assay", "setting": "1 uM", "result": 0.02005}, {"measurement": "Results in α7+/− β-galactosidase assay", "setting": "5 uM", "result": 0.2293}, {"measurement": "Results in α7+/− β-galactosidase assay", "setting": "10 uM", "result": 0.07554}, {"measurement": "Results in α7+/− β-galactosidase assay", "setting": "20 uM", "result": 0.1241}, {"measurement": "Results in α7+/− β-galactosidase assay", "setting": "40 uM", "result": 0.1026}]}, {"smiles": "Cc1cc([N+](=O)[O-])ccc1NC(=O)C(C)N1CCN(c2ccccn2)CC1", "note": "(stereo not shown) [drawing 393]", "values": [{"measurement": "Results in a α7+/− β-galactosidase assay, Myotubes, 0.5 uM", "result": 0.0774}, {"measurement": "Results in a α7+/− β-galactosidase assay, Myotubes, 1 uM", "result": 0.107}, {"measurement": "Results in a α7+/− β-galactosidase assay, Myotubes, 5 uM", "result": "−0.1042"}, {"measurement": "Results in a α7+/− β-galactosidase assay, Myotubes, 10 uM", "result": "−0.1154"}, {"measurement": "Results in a α7+/− β-galactosidase assay, Myotubes, 20 uM", "result": "−0.297"}, {"measurement": "Results in a α7+/− β-galactosidase assay, Myotubes, 40 uM", "result": "−0.3729"}]}, {"smiles": "NC(=O)c1cccnc1Oc1ccc(Cl)cc1Cl", "note": "[Compound 113]", "values": [{"measurement": "AC50", "setting": "[2]", "result": 10, "unit": "µM"}, {"measurement": "Fit HillSlope", "setting": "Table 12, curve fit", "result": 3.9295}, {"measurement": "Fit Zero Activity [%]", "setting": "[3]", "result": "−5.8907", "unit": "%"}, {"measurement": "Fit Curve Class", "setting": "Table 12", "result": 2.1}, {"measurement": "Score", "setting": "[4]", "result": 43}]}, {"smiles": "O=[N+]([O-])c1ccc(Cl)cc1N/N=C/c1ccncc1", "note": "[Compound 112]", "values": [{"measurement": "Fit HillSlope", "setting": "Table 12, curve fit", "result": 3.132}, {"measurement": "Fit Infinite Activity [%]", "setting": "Table 12, fitted activity at infinite concentration", "result": 74.0416, "unit": "%"}, {"measurement": "Fit Zero Activity [%]", "setting": "[3]", "result": 0.1229, "unit": "%"}, {"measurement": "Fit Curve Class", "setting": "Table 12", "result": 2.2}, {"measurement": "Fit Log AC50", "setting": "[2]", "result": "−5.25"}, {"measurement": "Score", "setting": "[4]", "result": 43}]}, {"smiles": "COCc1c(C(=O)OCc2nc(=O)c3sccc3[nH]2)oc2ccccc12", "note": "[Compound 6]", "values": [{"measurement": "AC50", "setting": "[2]", "result": 1.12, "unit": "µM"}, {"measurement": "Emax", "result": 68.1, "unit": "%"}, {"measurement": "Fit HillSlope", "setting": "Table 12, curve fit", "result": 1.3437}, {"measurement": "Fit Zero Activity [%]", "setting": "[3]", "result": "−58.5311", "unit": "%"}, {"measurement": "Fit Curve Class", "setting": "Table 12", "result": 1.1}, {"measurement": "Score", "setting": "[4]", "result": 85}]}, {"smiles": "O=C(CSc1nnc(C2CC2)n1C1CC1)c1cccs1", "note": "[Compound 133]", "values": [{"measurement": "EC50", "result": 10, "unit": "µM"}, {"measurement": "Score", "setting": "Table 12 compound data", "result": 42}, {"measurement": "Fit Curve Class", "setting": "curve class number", "result": 2.1}, {"measurement": "Fit HillSlope", "setting": "curve fit", "result": 2.7202}, {"measurement": "Fit Zero Activity [%]", "setting": "[1]", "result": "−27.5656", "unit": "%"}]}, {"smiles": "CCCCN1CC(=O)N2Cc3[nH]c4ccccc4c3C[C@H]2C1=O", "note": "[drawing 686]", "values": [{"measurement": "Results in α7+/− β-galactosidase assay", "setting": "0.5 uM", "result": 0.1518}, {"measurement": "Results in α7+/− β-galactosidase assay", "setting": "1 uM", "result": 0.2222}, {"measurement": "Results in α7+/− β-galactosidase assay", "setting": "5 uM", "result": "−0.00341"}, {"measurement": "Results in α7+/− β-galactosidase assay", "setting": "10 uM", "result": "−0.04523"}, {"measurement": "Results in α7+/− β-galactosidase assay", "setting": "20 uM", "result": 0.1761}, {"measurement": "Results in α7+/− β-galactosidase assay", "setting": "40 uM", "result": 0.2299}]}, {"smiles": "COc1ccc(CN2CCNC(=O)C2CC(=O)NCCc2c[nH]c3ccccc23)c(OC)c1", "note": "(stereo not shown) [drawing 484]", "values": [{"measurement": "Results in a α7+/− β-galactosidase assay, Myotubes, 0.5 uM", "result": "−0.059"}, {"measurement": "Results in a α7+/− β-galactosidase assay, Myotubes, 1 uM", "result": "−0.1025"}, {"measurement": "Results in a α7+/− β-galactosidase assay, Myotubes, 5 uM", "result": 0.1466}, {"measurement": "Results in a α7+/− β-galactosidase assay, Myotubes, 10 uM", "result": "−0.2654"}, {"measurement": "Results in a α7+/− β-galactosidase assay, Myotubes, 20 uM", "result": "−0.1345"}, {"measurement": "Results in a α7+/− β-galactosidase assay, Myotubes, 40 uM", "result": "−0.1806"}]}, {"smiles": "Cc1nc2c(cnn2-c2ccccc2)c(=O)n1/N=C/c1ccccc1", "note": "[Compound 171]", "values": [{"measurement": "EC50", "result": 10, "unit": "µM"}, {"measurement": "Score", "setting": "Table 12 compound data", "result": 42}, {"measurement": "Fit Curve Class", "setting": "curve class number", "result": 2.2}, {"measurement": "Fit HillSlope", "setting": "curve fit", "result": 3.132}, {"measurement": "Fit Zero Activity [%]", "setting": "[1]", "result": 9.9159, "unit": "%"}]}, {"smiles": "Cc1ccc(Cn2nnc3c(O)nc(C4CCCN(C(=O)c5ccco5)C4)nc32)cc1", "note": "(stereo not shown) [drawing 475]", "values": [{"measurement": "Results in a α7+/− β-galactosidase assay, Myotubes, 0.5 uM", "result": "−0.1767"}, {"measurement": "Results in a α7+/− β-galactosidase assay, Myotubes, 1 uM", "result": "−0.1614"}, {"measurement": "Results in a α7+/− β-galactosidase assay, Myotubes, 5 uM", "result": "−0.2961"}, {"measurement": "Results in a α7+/− β-galactosidase assay, Myotubes, 10 uM", "result": "−0.3051"}, {"measurement": "Results in a α7+/− β-galactosidase assay, Myotubes, 20 uM", "result": "−0.225"}, {"measurement": "Results in a α7+/− β-galactosidase assay, Myotubes, 40 uM", "result": "−0.2551"}]}, {"smiles": "COc1ccc(CCNC(=O)Cn2nnc(C(=O)Nc3ccc(Br)cc3)c2N)cc1OC", "note": "[drawing 325]", "values": [{"measurement": "Results in a α7+/− β-galactosidase assay, Myotubes, 0.5 uM", "result": 0.151}, {"measurement": "Results in a α7+/− β-galactosidase assay, Myotubes, 1 uM", "result": "−0.08157"}, {"measurement": "Results in a α7+/− β-galactosidase assay, Myotubes, 5 uM", "result": "−0.07294"}, {"measurement": "Results in a α7+/− β-galactosidase assay, Myotubes, 10 uM", "result": "−0.05869"}, {"measurement": "Results in a α7+/− β-galactosidase assay, Myotubes, 20 uM", "result": "−0.4709"}, {"measurement": "Results in a α7+/− β-galactosidase assay, Myotubes, 40 uM", "result": "−0.3389"}]}, {"smiles": "CCOC(=O)c1sc(=N)n(-c2ccc(OC)cc2)c1C", "note": "[Compound 26]", "values": [{"measurement": "AC50", "setting": "[2]", "result": 2, "unit": "µM"}, {"measurement": "Emax", "result": 56.1, "unit": "%"}, {"measurement": "Fit HillSlope", "setting": "Table 12, curve fit", "result": 1.1}, {"measurement": "Fit Zero Activity [%]", "setting": "[3]", "result": "−36.1807", "unit": "%"}, {"measurement": "Fit Curve Class", "setting": "Table 12", "result": 1.1}, {"measurement": "Score", "setting": "[4]", "result": 84}]}]}
